Source: patent US20130171141A1, “COMBINATION OF HDAC INHIBITORS WITH THROMBOCYTOPENIA DRUGS” (NOVARTIS AG, priority 2010, published 2013)

Assays:
reticulated platelets = test: Reticulated platelet staining (thiazole orange), new platelet production; format: in vivo, C57BL/6 mice; settings: for absolute number of reticulated (new) platelets: 6 day experiment, thiazole orange, FIG. 2
Procedure: To assess platelet production, C57BL/6 mice were treated with panobinostat, carboplatin and ABT-737, and the RNA-containing platelet fraction (i.e. new platelets) was determined by staining with thiazole orange (FIG. 2). The number of new, reticulated platelets in vehicle-treated mice remained relatively constant over the 6 day time span of the experiment.

murine platelet lifespan = test: Platelet clearance analysis (biotinylated platelet lifespan) in HDACi-treated mice; settings: for decrease in labelled (biotinylated) platelets in peripheral blood over time: IV NHS-biotin, seven days, 10 mg/kg panobinostat IP or 1 mg/kg romidepsin IP daily, compared to vehicle
Procedure: Mice were twice injected intravenously (IV), one hour apart, with 600 μg NHS-biotin in phospho-buffered saline (PBS) and 10% dimethyl sulphoxide (DMSO). At various time points peripheral blood was isolated from the tail, and 1 μl blood was washed twice in PBS and 10 mM EDTA. Platelets were stained with phycoerythrin-conjugated rat anti-CD41 and allophycocyanin-conjugated streptavidin (APC-A) for 30 minutes on ice. Samples were washed again and incubated with 0.125 μg/ml thiazole orange, which has increased uptake in high RNA-containing platelets, staining younger, reticulated platelet fraction, for 90 minutes. Flow cytometry was then performed on an LSR flow cytometer. By plotting the number of biotinylated platelets against time, an estimate of the life span was obtained by linear extrapolation, while the number of thiazole orange-positive, non-biotinylated platelets provided an estimate of new platelet production.
The mice were then treated for seven days with either 10 mg/kg panobinostat IP or 1 mg/kg romidepsin IP daily or vehicle, and the number of biotinylated platelets in peripheral blood was determined. […] ABT-737 is a BH3 mimetic that inhibits Bcl-xL, which causes direct platelet apoptosis. […] Megakaryocytes are the haematopoietic cells responsible for the production of platelets which reside in the bone marrow.

thrombocytopenia (TCP) = test: HDACi-induced thrombocytopenia and co-treatment with TPO-mimetic; format: in vivo; settings: wild-type C57BL/6 mice, 10 mg/kg IP daily, 12-day period
Procedure: To determine whether administration of a TPO-mimetic could ameliorate TCP, some of the panobinostat-treated mice were subjected to co-treatment with 20 μg/kg AMP-4 at day 0 and day 6 (FIG. 3).
To determine whether administration of a TPO-mimetic could ameliorate TCP, some of the romidepsin-treated mice were subjected to co-treatment with 20 μg/kg AMP-4 at day 0 and day 6 (FIG. 4).

platelet count [1] = test: Compound III with eltrombopag in multiple myeloma patient; format: in vivo, human; settings: recommended dosage of compound III, Example 3
Procedure: A patient having multiple myeloma patient is given the recommend dosage of compound III. […] A patient having Hodgkin's lymphoma is tested for thrombocytopenia. Patient is found to have a low blood cell count or a biomarker for thrombocytopenia. Patient is put on a regimen of compound III together with eltrombopag.

platelet count [2] = test: Compound III with eltrombopag in Hodgkin's lymphoma patient; format: in vivo, human; settings: recommended dosage of compound III, Example 1
Procedure: A patient having Hodgkin's lymphoma is given the recommend dosage of compound III. […] A patient having Hodgkin's lymphoma is tested for thrombocytopenia. Patient is found to have a low blood cell count or a biomarker for thrombocytopenia. Patient is put on a regimen of compound III together with eltrombopag.

N.N.O=C([O-])C1(C(=O)[O-])CCC1.[Pt+2] [carboplatin]
absolute reticulated platelet numbers (reticulated platelets; 6 days after the commencement of treatment): significantly reduced | new platelet production (reticulated platelets; first 4 days of treatment): did not significantly affect | platelet life span (murine platelet lifespan; mice, FIG. 1): did not affect

CN(C)CC[C@H](CSc1ccccc1)Nc1ccc(S(=O)(=O)NC(=O)c2ccc(N3CCN(Cc4ccccc4-c4ccc(Cl)cc4)CC3)cc2)cc1[N+](=O)[O-] [ABT-737]
absolute number of reticulated (new) platelets (reticulated platelets; C57BL/6 mice): substantial increase | reduction in platelet number (murine platelet lifespan; biotinylated platelets, two hours following administration): 50% | decrease in labelled (biotinylated) platelets in peripheral blood over time (murine platelet lifespan; mice, FIG. 1): rapidly reduced

Cc1[nH]c2ccccc2c1CCNCc1ccc(/C=C/C(=O)NO)cc1 [panobinostat, N-hydroxy-3-[4-[[[2-(2-methyl-1H-indol-3-yl)-ethyl]-amino]methyl]phenyl]-2E-2-propenamide]
thrombocytopenia (TCP) (thrombocytopenia (TCP)): sustained TCP | patient's platelet count (platelet count [1]): begins to lower | patient's platelet count (platelet count [2]): begins to lower | absolute number of reticulated (new) platelets (reticulated platelets; C57BL/6 mice): dramatic decrease | platelet count versus baseline (reticulated platelets; C57BL/6 mice, throughout the course of the experiment): remained well below baseline levels | decrease in labelled (biotinylated) platelets in peripheral blood over time (murine platelet lifespan; mice, FIG. 1): remained similar to vehicle-treated mice

C/C=C1\NC(=O)[C@H]2CSSCC/C=C/[C@H](CC(=O)N[C@H](C(C)C)C(=O)N2)OC(=O)[C@H](C(C)C)NC1=O [romidepsin]
thrombocytopenia (TCP) (thrombocytopenia (TCP)): sustained TCP | decrease in labelled (biotinylated) platelets in peripheral blood over time (murine platelet lifespan; mice, FIG. 1): remained similar to vehicle-treated mice
